Assay results published in patent US11078193B2 (priority 2014, dated 2021).

Experiments:
[1] = system: HBV; test: anti HBV activity, HepG2.117 inducibly HBV producing cell line (Tet-off), intracellular HBV DNA by realtime PCR; format: cell-based; conditions: Hepatitis B virus, 72 h, HepG2.117 cells, 3 days of treatment
[2] = ATP based toxicity assay (ATPlite), HepG2 cell line; conditions: human, HepG2 cells, ATPlite (ATP levels)
Procedure: Alternatively, cytotoxicity was determined via an ATP-assay: The ATPlite kit from Perkin Elmer was used to assess compound cytotoxicity on the HepG2 cell line by determination of the ATP (adenosine triphosphate) levels. ATP is a marker for functional integrity and cell viability, because it is present in all metabolically active cells and any form of cell injury will result in a rapid decline in cellular ATP concentration. After compound incubation, 1 volume of ATPlite solution was added to the cells and the luminescence signal was measured.

[3] = Cytotoxicity, HepG2 cells, Resazurin assay; format: cell-based; conditions: human

## Cn1cc(S(=O)(=O)NC2(C)CC(F)(F)C2)c(F)c1C(=O)Nc1ccnc(C#N)c1 [Compound 53, N-(2-cyano-4-pyridyl)-4-[(3,3-difluoro-1-methyl-cyclobutyl)sulfamoyl]-3-fluoro-1-methyl-pyrrole-2-carboxamide]
[1]
  EC50: 0.04 µM
[2]
  CC50 at 4 days: > 25 µM
[3]
  CC50 at 4 days: > 25 µM

## Cn1cc(S(=O)(=O)NC2(C)CC(F)(F)C2)c(F)c1C(=O)Nc1ccnc(C(F)F)c1 [Compound 83, 4-[(3,3-difluoro-1-methyl-cyclobutyl)sulfamoyl]-N-[2-(difluoromethyl)-4-pyridyl]-3-fluoro-1-methyl-pyrrole-2-carboxamide]
[1]
  EC50: 0.01 µM
[2]
  CC50 at 4 days: > 25 µM
[3]
  CC50 at 4 days: > 25 µM

## C[C@@H](NS(=O)(=O)c1cc(C(=O)Nc2ccnc(C(F)F)c2)n(C)c1)C(C)(F)F [Compound 100, 4-[[(1R)-2,2-difluoro-1-methyl-propyl]sulfamoyl]-N-[2-(difluoromethyl)-4-pyridyl]-1-methyl-pyrrole-2-carboxamide]
[1]
  EC50: 0.08 µM
[2]
  CC50 at 4 days: > 25 µM
[3]
  CC50 at 4 days: > 25 µM

## Cn1cc(S(=O)(=O)NC(C)(C)C(F)(F)F)c(F)c1C(=O)Nc1ccnc(C(F)F)c1 [Compound 190, N-[2-(difluoromethyl)-4-pyridyl]-3-fluoro-1-methyl-4-[(2,2,2-trifluoro-1,1-dimethyl-ethyl)sulfamoyl]pyrrole-2-carboxamide]
[1]
  EC50: 0.05 µM
[2]
  CC50 at 4 days: > 25 µM

## Cn1cc(S(=O)(=O)NC(C)(C)C(F)(F)F)c(F)c1C(=O)Nc1ccnc(Br)c1 [Compound 191, N-(2-bromo-4-pyridyl)-3-fluoro-1-methyl-4-[(2,2,2-trifluoro-1,1-dimethyl-ethyl)sulfamoyl]pyrrole-2-carboxamide]
[1]
  EC50: 0.06 µM
[2]
  CC50 at 4 days: > 25 µM

## Cn1cc(S(=O)(=O)NC2(C(F)(F)F)CC2)c(F)c1C(=O)Nc1ccnc(C#N)c1 [Compound 192, N-(2-cyano-4-pyridyl)-3-fluoro-1-methyl-4-[[1-(trifluoromethyl)cyclopropyl]sulfamoyl]pyrrole-2-carboxamide]
[1]
  EC50: 0.02 µM
[2]
  CC50 at 4 days: > 25 µM

## Cn1cc(S(=O)(=O)NC2(C(F)(F)F)CC2)c(F)c1C(=O)Nc1cc(F)nc(F)c1 [Compound 193, N-(2,6-difluoro-4-pyridyl)-3-fluoro-1-methyl-4-[[1-(trifluoromethyl)cyclopropyl]sulfamoyl]pyrrole-2-carboxamide]
[1]
  EC50: 0.009 µM
[2]
  CC50 at 4 days: > 25 µM

## Cn1cc(S(=O)(=O)NC2(C(F)(F)F)CC2)c(F)c1C(=O)Nc1ccnc(Br)c1 [Compound 194, N-(2-bromo-4-pyridyl)-3-fluoro-1-methyl-4-[[1-(trifluoromethyl)cyclopropyl]sulfamoyl]pyrrole-2-carboxamide]
[1]
  EC50: 0.02 µM
[2]
  CC50 at 4 days: > 25 µM

## Cn1cc(S(=O)(=O)NC2(C(F)(F)F)CC2)c(F)c1C(=O)Nc1ccnc(C(F)F)c1F [Compound 195, N-[2-(difluoromethyl)-3-fluoro-4-pyridyl]-3-fluoro-1-methyl-4-[[1-(trifluoromethyl)cyclopropyl]sulfamoyl]pyrrole-2-carboxamide]
[1]
  EC50: 0.02 µM
[2]
  CC50 at 4 days: > 25 µM

## Cn1cc(S(=O)(=O)NC2(C(F)(F)F)CC2)c(F)c1C(=O)Nc1ccnc(C(F)F)c1 [Compound 196, N-[2-(difluoromethyl)-4-pyridyl]-3-fluoro-1-methyl-4-[[1-(trifluoromethyl)cyclopropyl]sulfamoyl]pyrrole-2-carboxamide]
[1]
  EC50: 0.02 µM
[2]
  CC50 at 4 days: > 25 µM

## Cn1cc(S(=O)(=O)NC2(C)CC(F)(F)C2)c(F)c1C(=O)Nc1ccnc(C#N)c1F [Compound 197, N-(2-cyano-3-fluoro-4-pyridyl)-4-[(3,3-difluoro-1-methyl-cyclobutyl)sulfamoyl]-3-fluoro-1-methyl-pyrrole-2-carboxamide]
[1]
  EC50: 0.01 µM
[2]
  CC50 at 4 days: > 25 µM

## Cn1cc(S(=O)(=O)NC2(C(F)(F)F)COC2)c(F)c1C(=O)Nc1ccnc(Cl)c1 [Compound 198]
[1]
  EC50: 0.09 µM
[2]
  CC50 at 4 days: > 25 µM

## Cn1cc(S(=O)(=O)NC(C)(C)C(F)(F)F)c(F)c1C(=O)Nc1ccnc(C(F)F)c1F [Compound 201, N-[2-(difluoromethyl)-3-fluoro-4-pyridyl]-3-fluoro-1-methyl-4-[(2,2,2-trifluoro-1,1-dimethyl-ethyl)sulfamoyl]pyrrole-2-carboxamide]
[1]
  EC50: 0.03 µM
[2]
  CC50 at 4 days: > 25 µM

## C[C@@H](NS(=O)(=O)c1cn(C)c(C(=O)Nc2ccnc(C(F)F)c2F)c1F)C(F)(F)F [Compound 202, N-[2-(difluoromethyl)-3-fluoro-4-pyridyl]-3-fluoro-1-methyl-4-[[(1R)-2,2,2-trifluoro-1-methyl-ethyl]sulfamoyl]pyrrole-2-carboxamide]
[1]
  EC50: 0.008 µM
[2]
  CC50 at 4 days: > 25 µM

## Cn1cc(S(=O)(=O)NC2(C(F)(F)F)CC2)c(F)c1C(=O)Nc1ccnc(Br)c1F [Compound 203, N-(2-bromo-3-fluoro-4-pyridyl)-3-fluoro-1-methyl-4-[[1-(trifluoromethyl)cyclopropyl]sulfamoyl]pyrrole-2-carboxamide]
[1]
  EC50: 0.008 µM
[2]
  CC50 at 4 days: > 25 µM

## C[C@@H](NS(=O)(=O)c1cn(C)c(C(=O)Nc2ccnc(C(F)F)c2F)c1F)C(C)(F)F [Compound 204, N-[2-(difluoromethyl)-3-fluoro-4-pyridyl]-4-[[(1R)-2,2-difluoro-1-methyl-propyl]sulfamoyl]-3-fluoro-1-methyl-pyrrole-2-carboxamide]
[1]
  EC50: 0.01 µM
[2]
  CC50 at 4 days: > 25 µM

## Cc1c(S(=O)(=O)N[C@H](C)C(F)(F)F)c(F)c(C(=O)Nc2ccnc(Br)c2)n1C [Compound 205, N-(2-bromo-4-pyridyl)-3-fluoro-1,5-dimethyl-[[(1R)-2,2,2-trifluoro-1-methyl-ethyl]sulfamoyl]pyrrole-2-carboxamide]
[1]
  EC50: 0.02 µM
[2]
  CC50 at 4 days: > 25 µM

## Cc1c(S(=O)(=O)N[C@H](C)C(F)(F)F)c(F)c(C(=O)Nc2ccnc(C(F)F)c2)n1C [Compound 206, N-[2-(difluoromethyl)-4-pyridyl]-3-fluoro-1,5-dimethyl-4-[[(1R)-2,2,2-trifluoro-1-methyl-ethyl]sulfamoyl]pyrrole-2-carboxamide]
[1]
  EC50: 0.02 µM
[2]
  CC50 at 4 days: > 25 µM

## Cc1c(S(=O)(=O)N[C@H](C)C(F)(F)F)c(F)c(C(=O)Nc2ccnc(C(F)F)c2F)n1C [Compound 207, N-[2-(difluoromethyl)-3-fluoro-4-pyridyl]-3-fluoro-1,5-dimethyl-4-[[(1R)-2,2,2-trifluoro-1-methyl-ethyl]sulfamoyl]pyrrole-2-carboxamide]
[1]
  EC50: 0.01 µM
[2]
  CC50 at 4 days: > 25 µM

## Cn1cc(S(=O)(=O)NC2(C(F)(F)F)COC2)c(F)c1C(=O)Nc1ccnc(C(F)F)c1F [Compound 208, N-[2-(difluoromethyl)-3-fluoro-4-pyridyl]-3-fluoro-1-methyl-4-[[3-(trifluoromethyl)oxetan-3-yl]sulfamoyl]pyrrole-2-carboxamide]
[1]
  EC50: 0.04 µM
[2]
  CC50 at 4 days: > 25 µM

## Cn1cc(S(=O)(=O)NC2(C(F)(F)F)COC2)c(F)c1C(=O)Nc1ccnc(Br)c1 [Compound 209, N-(2-bromo-4-pyridyl)-3-fluoro-1-methyl-4-[[3-(trifluoromethyl)oxetan-3-yl]sulfamoyl]pyrrole-2-carboxamide]
[1]
  EC50: 0.09 µM
[2]
  CC50 at 4 days: > 25 µM

## Cn1cc(S(=O)(=O)NC2(C(F)(F)F)COC2)c(F)c1C(=O)Nc1ccnc(C(F)F)c1 [Compound 210]
[1]
  EC50: 0.07 µM
[2]
  CC50 at 4 days: > 25 µM

## Cn1cc(S(=O)(=O)NC2(C(F)(F)F)COC2)c(F)c1C(=O)Nc1cc(F)nc(F)c1 [Compound 211]
[1]
  EC50: 0.05 µM
[2]
  CC50 at 4 days: > 25 µM

## Cn1cc(S(=O)(=O)NC2(C(F)(F)F)COC2)c(F)c1C(=O)Nc1ccnc(Cl)c1F [Compound 212, N-(2-chloro-3-fluoro-4-pyridyl)-3-fluoro-1-methyl-4-[[3-(trifluoromethyl)oxetan-3-yl]sulfamoyl]pyrrole-2-carboxamide]
[1]
  EC50: 0.06 µM
[2]
  CC50 at 4 days: > 25 µM

## Cc1cc(NC(=O)c2c(F)c(S(=O)(=O)N[C@H](C)C(F)(F)F)cn2C)cc(Cl)n1 [Compound 213, N-(2-chloro-6-methyl-4-pyridyl)-3-fluoro-1-methyl-4-[[(1R)-2,2,2-trifluoro-1-methyl-ethyl]sulfamoyl]pyrrole-2-carboxamide]
[1]
  EC50: 0.05 µM
[2]
  CC50 at 4 days: > 25 µM

## Cc1nc(NC(=O)c2c(F)c(S(=O)(=O)N[C@H](C)C(F)(F)F)cn2C)ccc1F [Compound 214, 3-fluoro-N-(5-fluoro-6-methyl-2-pyridyl)-1-methyl-4-[[(1R)-2,2,2-trifluoro-1-methyl-ethyl]sulfamoyl]pyrrole-2-carboxamide]
[1]
  EC50: 0.08 µM
[2]
  CC50 at 4 days: > 25 µM

## C[C@@H](NS(=O)(=O)c1cn(C)c(C(=O)Nc2cc(F)nc(Cl)c2)c1F)C(F)(F)F [Compound 215, N-(2-chloro-6-fluoro-4-pyridyl)-3-fluoro-1-methyl-4-[[(1R)-2,2,2-trifluoro-1-methyl-ethyl]sulfamoyl]pyrrole-2-carboxamide]
[1]
  EC50: 0.006 µM
[2]
  CC50 at 4 days: > 25 µM

## C[C@@H](NS(=O)(=O)c1cn(C)c(C(=O)Nc2cc(F)nc(Br)c2)c1F)C(F)(F)F [Compound 216, N-(2-bromo-6-fluoro-4-pyridyl)-3-fluoro-1-methyl-[[(1R)-2,2,2-trifluoro-1-methyl-ethyl]sulfamoyl]pyrrole-2-carboxamide]
[1]
  EC50: 0.01 µM
[2]
  CC50 at 4 days: > 25 µM

## Cn1cc(S(=O)(=O)NC2CCN(CC(F)(F)F)CC2)c(F)c1C(=O)Nc1ccnc(Cl)c1 [Compound 217, N-(2-chloro-4-pyridyl)-3-fluoro-1-methyl-4-[[1-(2,2,2-trifluoroethyl)-4-piperidyl]sulfamoyl]pyrrole-2-carboxamide]
[1]
  EC50: 0.46 µM
[2]
  CC50 at 4 days: > 25 µM
